Results as given in PubChem BioAssay (NCI).
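Each compound was tested at five concentrations against cells in 96-well plates for 48 hours. At the GI50, growth is halved. TGI denotes the concentration required for complete inhibition of growth.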

How the values were obtained:
Assay in all cases: growth of human tumour cells (NCI), 48 h
COLO 205 colon = tested on: COLO 205 colon
HOP-62 NSCLC = tested on: HOP-62 NSCLC
K-562 leukemia = tested on: K-562 leukemia
LOX IMVI melanoma = tested on: LOX IMVI melanoma
LXFL 529 NSCLC = tested on: LXFL 529 NSCLC
RPMI-8226 leukemia = tested on: RPMI-8226 leukemia
SF-295 CNS = tested on: SF-295 CNS
SK-MEL-2 melanoma = tested on: SK-MEL-2 melanoma
SNB-78 CNS = tested on: SNB-78 CNS
MDA-MB-435 = tested on: MDA-MB-435

O=S(O)CCCCSSCc1ccccc1CSSCCCCS(=O)O
TGI (COLO 205 colon): 31.2 µM
TGI (HOP-62 NSCLC): > 100 µM
TGI (K-562 leukemia): 82.3 µM
TGI (LOX IMVI melanoma): 28.7 µM
TGI (LXFL 529 NSCLC): 24.8 µM
TGI (RPMI-8226 leukemia): 45.8 µM
TGI (SF-295 CNS): 49.8 µM
TGI (SK-MEL-2 melanoma): > 100 µM

O=C(/C=C/c1ccccc1)/C=C/c1ccccc1
TGI (COLO 205 colon): > 100 µM
TGI (HOP-62 NSCLC): > 100 µM
TGI (K-562 leukemia): > 100 µM
TGI (LOX IMVI melanoma): 31.7 µM
TGI (LXFL 529 NSCLC): 50.1 µM
TGI (RPMI-8226 leukemia): > 100 µM
TGI (SF-295 CNS): > 100 µM
TGI (SK-MEL-2 melanoma): > 100 µM
TGI (SNB-78 CNS): > 100 µM

CCCCCCCCCc1cc(=O)c2c(O)cccc2o1
TGI (COLO 205 colon): > 100 µM
TGI (HOP-62 NSCLC): > 100 µM
TGI (K-562 leukemia): > 100 µM
TGI (LOX IMVI melanoma): 72.3 µM
TGI (LXFL 529 NSCLC): > 100 µM
TGI (RPMI-8226 leukemia): > 100 µM
TGI (SF-295 CNS): > 100 µM
TGI (SK-MEL-2 melanoma): 64.7 µM
TGI (SNB-78 CNS): > 100 µM

CCOC(=O)[C@H](CCCNC(=O)OC(C)(C)C)NCc1ccc(OC)c(OC)c1
TGI (COLO 205 colon): > 100 µM
TGI (HOP-62 NSCLC): > 100 µM
TGI (K-562 leukemia): > 100 µM
TGI (LOX IMVI melanoma): > 100 µM
TGI (LXFL 529 NSCLC): > 100 µM
TGI (SF-295 CNS): > 100 µM
TGI (SK-MEL-2 melanoma): > 100 µM

O=C1CSC(Cc2nc3ccccc3[nH]2)=N1
TGI (COLO 205 colon): 50 µM
TGI (HOP-62 NSCLC): 44.1 µM
TGI (K-562 leukemia): > 100 µM
TGI (LOX IMVI melanoma): 37.3 µM
TGI (LXFL 529 NSCLC): > 53.8 µM
TGI (RPMI-8226 leukemia): > 100 µM
TGI (SF-295 CNS): 63.3 µM
TGI (SK-MEL-2 melanoma): 38.4 µM
TGI (SNB-78 CNS): > 100 µM

N#CC(C(=O)/C(=N/Nc1nc(=S)[nH]n1N)C(C#N)c1ccccc1)c1ccccc1 (stereo unspecified)
TGI (COLO 205 colon): > 100 µM
TGI (HOP-62 NSCLC): > 100 µM
TGI (K-562 leukemia): > 100 µM
TGI (LOX IMVI melanoma): > 100 µM
TGI (LXFL 529 NSCLC): > 100 µM
TGI (MDA-MB-435): > 100 µM
TGI (RPMI-8226 leukemia): > 100 µM
TGI (SF-295 CNS): > 100 µM
TGI (SK-MEL-2 melanoma): > 100 µM
TGI (SNB-78 CNS): > 100 µM

CCOC(=O)C1N(S(=O)(=O)c2ccc(C)cc2)CCC12C(c1ccc(OC)cc1)NC1CCCCC12 (stereo unspecified)
TGI (COLO 205 colon): > 100 µM
TGI (HOP-62 NSCLC): > 100 µM
TGI (K-562 leukemia): > 100 µM
TGI (LOX IMVI melanoma): > 100 µM
TGI (LXFL 529 NSCLC): > 100 µM
TGI (RPMI-8226 leukemia): > 100 µM
TGI (SF-295 CNS): > 100 µM
TGI (SNB-78 CNS): > 100 µM

O=C(CCC(=O)Nc1cccc(Cl)c1)CC(=O)c1ccc(Cl)cc1
TGI (COLO 205 colon): > 100 µM
TGI (HOP-62 NSCLC): > 100 µM
TGI (K-562 leukemia): > 100 µM
TGI (LOX IMVI melanoma): > 100 µM
TGI (LXFL 529 NSCLC): > 100 µM
TGI (RPMI-8226 leukemia): > 100 µM
TGI (SF-295 CNS): > 100 µM
TGI (SK-MEL-2 melanoma): > 100 µM
TGI (SNB-78 CNS): > 100 µM

O=C(Nc1ccc([N+](=O)[O-])cc1)C1C(=O)C(=O)N(c2ccc([N+](=O)[O-])cc2)C1=O (stereo unspecified)
TGI (COLO 205 colon): > 100 µM
TGI (HOP-62 NSCLC): > 100 µM
TGI (K-562 leukemia): > 100 µM
TGI (LOX IMVI melanoma): 30.3 µM
TGI (LXFL 529 NSCLC): > 100 µM
TGI (RPMI-8226 leukemia): > 100 µM
TGI (SF-295 CNS): > 100 µM
TGI (SK-MEL-2 melanoma): > 100 µM
TGI (SNB-78 CNS): > 100 µM

N#CC(/C(=N/NC(=O)C(=O)NN)C(=O)NC12CC3CC(CC(C3)C1)C2)c1ccccc1 (stereo unspecified)
TGI (COLO 205 colon): > 100 µM
TGI (HOP-62 NSCLC): > 100 µM
TGI (K-562 leukemia): > 100 µM
TGI (LOX IMVI melanoma): > 100 µM
TGI (LXFL 529 NSCLC): > 100 µM
TGI (RPMI-8226 leukemia): > 100 µM
TGI (SF-295 CNS): > 100 µM
TGI (SK-MEL-2 melanoma): > 100 µM
TGI (SNB-78 CNS): > 100 µM

COC(=O)/C=C/C1C(C(=O)OC)C2(C(=O)OC)CCC1(C(=O)OC)N2 (stereo unspecified)
TGI (COLO 205 colon): > 100 µM
TGI (HOP-62 NSCLC): > 100 µM
TGI (K-562 leukemia): > 100 µM
TGI (LOX IMVI melanoma): > 100 µM
TGI (LXFL 529 NSCLC): > 100 µM
TGI (RPMI-8226 leukemia): > 100 µM
TGI (SF-295 CNS): > 100 µM
TGI (SK-MEL-2 melanoma): > 100 µM
TGI (SNB-78 CNS): > 100 µM

O=C(CN1CCCCC1)N1CCc2c([nH]c3ccccc23)C1c1cccnc1 (stereo unspecified)
TGI (HOP-62 NSCLC): > 100 µM
TGI (K-562 leukemia): > 100 µM
TGI (LOX IMVI melanoma): > 100 µM
TGI (LXFL 529 NSCLC): > 100 µM
TGI (RPMI-8226 leukemia): > 100 µM
TGI (SF-295 CNS): > 100 µM
TGI (SNB-78 CNS): > 100 µM

COC(=O)C12C3C4C5(C(=O)OC)C(C1C35C(=O)N(C(C)C)C(C)C)C42C(=O)N(C(C)C)C(C)C (stereo unspecified)
TGI (COLO 205 colon): > 50 µM
TGI (HOP-62 NSCLC): > 50 µM
TGI (K-562 leukemia): > 50 µM
TGI (LOX IMVI melanoma): > 43.6 µM
TGI (LXFL 529 NSCLC): > 50 µM
TGI (RPMI-8226 leukemia): > 50 µM
TGI (SF-295 CNS): > 50 µM
TGI (SK-MEL-2 melanoma): > 50 µM
TGI (SNB-78 CNS): > 50 µM

O=C(CCC/C(CC(=O)c1ccc(Br)cc1)=N\O)Nc1ccccc1
TGI (COLO 205 colon): > 100 µM
TGI (HOP-62 NSCLC): > 100 µM
TGI (LOX IMVI melanoma): > 100 µM
TGI (LXFL 529 NSCLC): > 100 µM
TGI (RPMI-8226 leukemia): > 100 µM
TGI (SF-295 CNS): > 100 µM
TGI (SK-MEL-2 melanoma): > 100 µM
TGI (SNB-78 CNS): > 100 µM

Cc1cc(C)n(CCNCCn2nc(C)cc2C)n1
TGI (COLO 205 colon): > 100 µM
TGI (HOP-62 NSCLC): > 100 µM
TGI (K-562 leukemia): > 100 µM
TGI (LOX IMVI melanoma): > 100 µM
TGI (LXFL 529 NSCLC): > 100 µM
TGI (RPMI-8226 leukemia): > 100 µM
TGI (SF-295 CNS): > 100 µM
TGI (SK-MEL-2 melanoma): > 1 µM
TGI (SNB-78 CNS): > 100 µM

CCOC(=O)CCc1c(C)c2c(OC(C)=O)cc(OC(C)=O)cc2oc1=O
TGI (COLO 205 colon): > 100 µM
TGI (HOP-62 NSCLC): > 100 µM
TGI (LXFL 529 NSCLC): > 100 µM
TGI (SF-295 CNS): > 100 µM
TGI (SK-MEL-2 melanoma): 82.2 µM
TGI (SNB-78 CNS): > 100 µM

CC1=C(C(=O)Nc2c(C)cccc2C)C(c2ccccc2Cl)C(C(=O)Nc2c(C)cccc2C)=C(C)N1
TGI (COLO 205 colon): > 100 µM
TGI (HOP-62 NSCLC): > 100 µM
TGI (K-562 leukemia): > 100 µM
TGI (LOX IMVI melanoma): > 100 µM
TGI (LXFL 529 NSCLC): > 100 µM
TGI (RPMI-8226 leukemia): > 100 µM
TGI (SF-295 CNS): > 100 µM
TGI (SK-MEL-2 melanoma): > 100 µM
TGI (SNB-78 CNS): > 100 µM

N#C/C(=C\c1ccc(O)c(O)c1)C(N)=O
TGI (COLO 205 colon): > 100 µM
TGI (HOP-62 NSCLC): > 100 µM
TGI (K-562 leukemia): > 100 µM
TGI (LXFL 529 NSCLC): > 100 µM
TGI (RPMI-8226 leukemia): > 100 µM
TGI (SF-295 CNS): > 100 µM
TGI (SK-MEL-2 melanoma): > 100 µM
TGI (SNB-78 CNS): > 100 µM

CC(=O)OCC1OC([S-])C(OC(C)=O)C(OC(C)=O)C1OC(C)=O.CC[PH+](CC)CC.CC[PH+](CC)CC.[Au].[Au] (stereo unspecified)
GI50 (COLO 205 colon): 0.198 µM
TGI (COLO 205 colon): 0.391 µM
GI50 (HOP-62 NSCLC): 1.23 µM
TGI (HOP-62 NSCLC): 2.56 µM
GI50 (K-562 leukemia): 0.0834 µM
TGI (K-562 leukemia): 0.337 µM
GI50 (LOX IMVI melanoma): 0.142 µM
TGI (LOX IMVI melanoma): 0.317 µM
GI50 (LXFL 529 NSCLC): 0.153 µM
TGI (LXFL 529 NSCLC): 0.322 µM
GI50 (RPMI-8226 leukemia): 0.138 µM
TGI (RPMI-8226 leukemia): 0.761 µM
GI50 (SF-295 CNS): 0.436 µM
TGI (SF-295 CNS): 1.63 µM
GI50 (SK-MEL-2 melanoma): 0.187 µM
TGI (SK-MEL-2 melanoma): 0.49 µM
GI50 (SNB-78 CNS): 0.311 µM
TGI (SNB-78 CNS): 2.79 µM

NC1CCCC[C@H]1N.N[C@@H]1CCCC[C@@H]1N.O=C(P(=O)([O-])[O-])P(=O)([O-])[O-].[Pt+4].[Pt+4]
GI50 (COLO 205 colon): > 100 µM
TGI (COLO 205 colon): > 100 µM
GI50 (HOP-62 NSCLC): > 100 µM
TGI (HOP-62 NSCLC): > 100 µM
GI50 (K-562 leukemia): 78.2 µM
TGI (K-562 leukemia): > 100 µM
GI50 (LOX IMVI melanoma): > 100 µM
TGI (LOX IMVI melanoma): > 100 µM
GI50 (LXFL 529 NSCLC): > 100 µM
TGI (LXFL 529 NSCLC): > 100 µM
GI50 (RPMI-8226 leukemia): 31.1 µM
TGI (RPMI-8226 leukemia): > 100 µM
GI50 (SF-295 CNS): 96.7 µM
TGI (SF-295 CNS): > 100 µM
GI50 (SK-MEL-2 melanoma): > 100 µM
TGI (SK-MEL-2 melanoma): > 100 µM
GI50 (SNB-78 CNS): > 100 µM
TGI (SNB-78 CNS): > 100 µM

CC(C)(C)N1CC2(CCCCC2)C1=O
TGI (COLO 205 colon): > 100 µM
TGI (HOP-62 NSCLC): > 100 µM
TGI (K-562 leukemia): > 100 µM
TGI (LOX IMVI melanoma): > 100 µM
TGI (RPMI-8226 leukemia): > 100 µM
TGI (SF-295 CNS): > 100 µM
TGI (SK-MEL-2 melanoma): > 100 µM
TGI (SNB-78 CNS): > 100 µM
